{"source": "the supplement of paper PMC10307832", "assay_in_all_cases": "relative viability (nuclei count vs DMSO), 5 days (fraction); higher = more cells survive", "key": {"NCI-H23": {"test_system": "NCI-H23", "method_in_brief": "(§1)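 One day after seeding in 1536-well plates, lung cancer cell lines were dosed by pin tool. Dosing was either single-drug or a fixed anchor-drug dose plus five library-drug doses (not always all listed) in √10 steps. After 5 days, nuclei were stained in one fix-and-stain step and counted on 4× images, and relative viability is the nuclei count of treated wells over that of vehicle wells, given as the median of duplicate plates.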"}, "H3255": {"test_system": "H3255", "method_in_brief": "as §1"}, "PC-3 [JPC-3]": {"test_system": "PC-3 [JPC-3]", "method_in_brief": "as §1"}, "NCI-H838": {"test_system": "NCI-H838", "method_in_brief": "as §1"}, "NCI-H2023": {"test_system": "NCI-H2023", "method_in_brief": "as §1"}, "NCI-H1975": {"test_system": "NCI-H1975", "method_in_brief": "as §1"}, "NCI-H441": {"test_system": "NCI-H441", "method_in_brief": "as §1"}, "NCI-H2087": {"test_system": "NCI-H2087", "method_in_brief": "as §1"}, "NCI-H727": {"test_system": "NCI-H727", "method_in_brief": "as §1"}, "NCI-H2170": {"test_system": "NCI-H2170", "method_in_brief": "as §1"}, "NCI-H2228": {"test_system": "NCI-H2228", "method_in_brief": "as §1"}, "NCI-H1650": {"test_system": "NCI-H1650", "method_in_brief": "as §1"}}}
{"molecule": "CCNC(=O)c1noc(-c2cc(C(C)C)c(O)cc2O)c1-c1ccc(CN2CCOCC2)cc1", "note": "[Luminespib] + COc1cc2c(Oc3ccc(NC(=O)C4(C(=O)Nc5ccc(F)cc5)CC4)cc3F)ccnc2cc1OCCCN1CCOCC1 [Foretinib] (partner 0.25 µM)", "values": [{"measurement": "relative viability", "setting": "NCI-H23; first compound 0.02 µM", "result": 0.858}, {"measurement": "relative viability", "setting": "NCI-H23; first compound 0.06325 µM", "result": 0.971}, {"measurement": "relative viability", "setting": "NCI-H23; first compound 0.2 µM", "result": 0.591}, {"measurement": "relative viability", "setting": "H3255; first compound 0.002 µM", "result": 0.785}, {"measurement": "relative viability", "setting": "H3255; first compound 0.006325 µM", "result": 0.821}, {"measurement": "relative viability", "setting": "H3255; first compound 0.06325 µM", "result": 0.833}, {"measurement": "relative viability", "setting": "H3255; first compound 0.2 µM", "result": 0.329}, {"measurement": "relative viability", "setting": "PC-3 [JPC-3]; first compound 0.002 µM", "result": 1.01}, {"measurement": "relative viability", "setting": "PC-3 [JPC-3]; first compound 0.006325 µM", "result": 0.938}, {"measurement": "relative viability", "setting": "PC-3 [JPC-3]; first compound 0.02 µM", "result": 1.18}, {"measurement": "relative viability", "setting": "PC-3 [JPC-3]; first compound 0.06325 µM", "result": 0.728}, {"measurement": "relative viability", "setting": "PC-3 [JPC-3]; first compound 0.2 µM", "result": 0.259}, {"measurement": "relative viability", "setting": "NCI-H838; first compound 0.002 µM", "result": 1.08}, {"measurement": "relative viability", "setting": "NCI-H838; first compound 0.006325 µM", "result": 1.06}, {"measurement": "relative viability", "setting": "NCI-H838; first compound 0.02 µM", "result": 1.07}, {"measurement": "relative viability", "setting": "NCI-H838; first compound 0.06325 µM", "result": 0.582}, {"measurement": "relative viability", "setting": "NCI-H838; first compound 0.2 µM", "result": 0.148}, {"measurement": "relative viability", "setting": "NCI-H2023; first compound 0.002 µM", "result": 0.739}, {"measurement": "relative viability", "setting": "NCI-H2023; first compound 0.006325 µM", "result": 0.884}, {"measurement": "relative viability", "setting": "NCI-H2023; first compound 0.02 µM", "result": 0.438}, {"measurement": "relative viability", "setting": "NCI-H2023; first compound 0.06325 µM", "result": 0.123}, {"measurement": "relative viability", "setting": "NCI-H2023; first compound 0.2 µM", "result": 0.0586}, {"measurement": "relative viability", "setting": "NCI-H1975; first compound 0.002 µM", "result": 1.07}, {"measurement": "relative viability", "setting": "NCI-H1975; first compound 0.006325 µM", "result": 0.97}, {"measurement": "relative viability", "setting": "NCI-H1975; first compound 0.02 µM", "result": 0.615}, {"measurement": "relative viability", "setting": "NCI-H1975; first compound 0.06325 µM", "result": 0.0994}, {"measurement": "relative viability", "setting": "NCI-H1975; first compound 0.2 µM", "result": 0.108}, {"measurement": "relative viability", "setting": "NCI-H441; first compound 0.002 µM", "result": 0.927}, {"measurement": "relative viability", "setting": "NCI-H441; first compound 0.006325 µM", "result": 0.92}, {"measurement": "relative viability", "setting": "NCI-H441; first compound 0.02 µM", "result": 1.51}, {"measurement": "relative viability", "setting": "NCI-H441; first compound 0.06325 µM", "result": 0.196}, {"measurement": "relative viability", "setting": "NCI-H441; first compound 0.2 µM", "result": 0.149}, {"measurement": "relative viability", "setting": "NCI-H2087; first compound 0.002 µM", "result": 1.11}, {"measurement": "relative viability", "setting": "NCI-H2087; first compound 0.006325 µM", "result": 1.1}, {"measurement": "relative viability", "setting": "NCI-H2087; first compound 0.02 µM", "result": 1.37}, {"measurement": "relative viability", "setting": "NCI-H2087; first compound 0.06325 µM", "result": 0.118}, {"measurement": "relative viability", "setting": "NCI-H2087; first compound 0.2 µM", "result": 0.113}, {"measurement": "relative viability", "setting": "NCI-H727; first compound 0.002 µM", "result": 1.04}, {"measurement": "relative viability", "setting": "NCI-H727; first compound 0.006325 µM", "result": 0.834}, {"measurement": "relative viability", "setting": "NCI-H727; first compound 0.02 µM", "result": 0.669}, {"measurement": "relative viability", "setting": "NCI-H727; first compound 0.06325 µM", "result": 0.219}, {"measurement": "relative viability", "setting": "NCI-H727; first compound 0.2 µM", "result": 0.332}, {"measurement": "relative viability", "setting": "NCI-H2170; first compound 0.002 µM", "result": 0.986}, {"measurement": "relative viability", "setting": "NCI-H2170; first compound 0.006325 µM", "result": 0.973}, {"measurement": "relative viability", "setting": "NCI-H2170; first compound 0.02 µM", "result": 0.806}, {"measurement": "relative viability", "setting": "NCI-H2170; first compound 0.06325 µM", "result": 0.72}, {"measurement": "relative viability", "setting": "NCI-H2170; first compound 0.2 µM", "result": 0.181}, {"measurement": "relative viability", "setting": "NCI-H2228; first compound 0.002 µM", "result": 0.776}, {"measurement": "relative viability", "setting": "NCI-H2228; first compound 0.006325 µM", "result": 0.844}, {"measurement": "relative viability", "setting": "NCI-H2228; first compound 0.02 µM", "result": 0.692}, {"measurement": "relative viability", "setting": "NCI-H2228; first compound 0.06325 µM", "result": 0.111}, {"measurement": "relative viability", "setting": "NCI-H2228; first compound 0.2 µM", "result": 0.117}, {"measurement": "relative viability", "setting": "NCI-H1650; first compound 0.002 µM", "result": 1.26}, {"measurement": "relative viability", "setting": "NCI-H1650; first compound 0.006325 µM", "result": 1.17}, {"measurement": "relative viability", "setting": "NCI-H1650; first compound 0.02 µM", "result": 1.23}, {"measurement": "relative viability", "setting": "NCI-H1650; first compound 0.06325 µM", "result": 0.158}, {"measurement": "relative viability", "setting": "NCI-H1650; first compound 0.2 µM", "result": 0.164}]}
